Source: patent US8268751B2, “Combination of active substances with insecticidal properties” (Bayer Cropscience AG, priority 2003, dated 2012)

Experiments:
Type in all cases: in vivo
Myzus persicae = Myzus persicae test (cabbage leaf dip)
Source text: (§1) The expected action for a given combination of two active compounds can be calculated as follows, according to S. R. Colby, Weeds 15 (1967), 20-22:
(§2) If • X is the kill rate, expressed as a percentage of the untreated control, when employing active compound A at an application rate of m g/ha or in a concentration of m ppm, • Y is the kill rate, expressed as a percentage of the untreated control, when employing active compound B at an application rate of n g/ha or in a concentration of n ppm and • E is the kill rate, expressed as a percentage of the untreated control, when employing active compounds A and B at application rates of m and n g/ha or in a concentration of m and n ppm, then
(§3) If the actual insecticidal kill rate exceeds the calculated value, the action of the combination is superadditive, i.e. a synergistic effect is present. In this case, the actually observed kill rate must exceed the value calculated using the above formula for the expected kill rate (E).
(§4) To produce a suitable preparation of active compound, 1 part by weight of active compound is mixed with the stated amounts of solvent and emulsifier, and the concentrate is diluted with emulsifier-containing water to the desired concentration.
Cabbage leaves (Brassica oleracea) which are heavily infested by the green peach aphid (Myzus persicae) are treated by being dipped into the preparation of active compound of the desired concentration.
After the desired period of time, the kill in % is determined. 100% means that all aphids have been killed; 0% means that none of the aphids have been killed. The kill rates determined are calculated using Colby's formula (see page 39).

[1] = tested on: Plutella xylostella, resistant strain; assay: Plutella-xylostella test (resistant strain), cabbage leaf dip
Source text: as §1, §2, §3
Plutella-xylostella Test (Resistant Strain)
as §4
Cabbage leaves (Brassica oleracea) are treated by being dipped into the preparation of active compound of the desired concentration and are populated with caterpillars of the diamond back moth (Plutella xylostella, resistant strain), while the leaves are still moist.
After the desired period of time, the kill in % is determined. 100% means that all caterpillars have been killed; 0% means that none of the caterpillars have been killed. The kill rates determined are calculated using Colby's formula (see page 39).

[2] = tested on: Phaedon cochleariae larvae; assay: Phaedon cochleariae larvae test (cabbage leaf dip); details: Table B, 0.16 ppm
Source text: as §1, §2, §3
Phaedon cochleariae Larvae Test
To produce a suitable preparation of active compound, 1 part by weight of active compound is mixed with the stated amounts of solvent and emulsifier, and the concentrate is diluted with emulsifier-containing water to the desired concentration. […]
After the desired period of time, the kill in % is determined. […] The kill rates determined are calculated using Colby's formula (see page 39).

Spodoptera frugiperda = Spodoptera frugiperda test (cabbage leaf dip); details: Table D, 0.032 ppm
Source text: as §1, §2, §3
Spodoptera frugiperda Test […]
After the desired period of time, the kill in % is determined: 100% means that all caterpillars have been killed; 0% means that none of the caterpillars have been killed. The kill rates determined are calculated using Colby's formula (see page 39).

Compound	Kill rate in % after 6 d, found (Myzus persicae; Table A2, 0.032 ppm) [%]	Kill rate in % after 6 d, found ([1]; Table C2, 0.0064 ppm) [%]	Kill rate in % after 6 d, found (Myzus persicae; Table A1, 4 ppm) [%]	Kill rate in % after 6 d, found (Myzus persicae; Table A2, 0.8 ppm) [%]	Kill rate in % after 3 d, found [2] [%]	Kill rate in % after 6 d, found ([1]; Table C1, 0.0064 ppm) [%]	Kill rate in % after 6 d, found (Spodoptera frugiperda) [%]	Kill rate in % after 6 d, found (Myzus persicae; Table A1, 0.16 ppm) [%]
CC1(C)C(/C=C(\Cl)C(F)(F)F)C1C(=O)OC(C#N)c1cccc(Oc2ccccc2)c1 (stereo not drawn) [(2-12) lambda-cyhalothrin, lambda-cyhalothrin]	0	0	–	–	–	–	–	–
Cc1cc(Cl)cc(C(=O)NC(C)C)c1NC(=O)c1cc(C(F)(F)F)nn1-c1ncccc1Cl [Example I-1-9]	–	10	15	0	0	0	75	–
CC1(C)C(C=C(Br)Br)C1C(=O)OC(C#N)c1cccc(Oc2ccccc2)c1 (stereo not drawn) [(2-6) deltamethrin, deltamethrin]	–	–	–	–	–	–	–	50
CC1(C)C(C=C(Cl)Cl)C1C(=O)OC(C#N)c1ccc(F)c(Oc2ccccc2)c1 (stereo not drawn) [(2-3) betacyfluthrin, betacyfluthrin]	–	–	–	–	15	0	0	–
